According to US7335672B2, “Vanilloid receptor ligands and their use in treatments” (Amgen Inc., priority 2004, dated 2008):

| Structure (SMILES) | melting point [°C] |
| --- | --- |
| CC(=O)Nc1nc2c(Oc3cc(-c4ccc(C(F)(F)F)cc4)nc(-c4cccnc4)n3)cccc2s1 [Example 9] | 268 to 270 |
| CC(=O)Nc1nc2c(Oc3cc(-c4ccc(C(F)(F)F)cc4)nc(N4CCN(C(=O)OC(C)(C)C)CC4)n3)cccc2s1 [Example 34, tert-Butyl 4-(4-(2-acetamidobenzo[d]thiazol-4-yloxy)-6-(4-(trifluoromethyl)phenyl)pyrimidin-2-yl)piperazine-1-carboxylate] | 211 |
| CC(=O)Nc1nc2c(Oc3cc(-c4ccc(C(F)(F)F)cc4)nc(N4CCCC(O)C4)n3)cccc2s1 (centres unmarked) [Example 39] | 198 |
| CC(=O)Nc1nc2c(Oc3cc(-c4ccc(C(F)(F)F)cc4)nc(N4CCC(C(=O)O)CC4)n3)cccc2s1 [Example 42, 1-{4-{[2-(acetylamino)-1,3-benzothiazol-4-yl]oxy}-6-[4-(trifluoromethyl)phenyl]pyrimidin-2-yl}piperidine-4-carboxylic acid] | 277 to 278 |
| CC(=O)Nc1nc2c(Oc3cc(-c4ccc(C(F)(F)F)cc4)nc(NCc4cccnc4)n3)cccc2s1 [Example 53] | 240 |
| CC(=O)Nc1nc2c(Oc3cc(-c4ccc(C(F)(F)F)cc4)nc(NCC4CCCN(C(=O)OC(C)(C)C)C4)n3)cccc2s1 (centres unmarked) [Example 70] | 128 |
| CC(=O)Nc1nc2c(Oc3cc(-c4ccc(C(F)(F)F)cc4)nc(NC[C@@H]4CCCN4C(=O)OC(C)(C)C)n3)cccc2s1 [Example 71, tert-butyl (2S)-2-[({4-{[2-(acetylamino)-1,3-benzothiazol-4-yl]oxy}-6-[4-(trifluoromethyl)phenyl]pyrimidin-2-yl}amino)methyl]pyrrolidine-1-carboxylate] | 132 |
| COCC(C)Nc1nc(Oc2cccc3[nH]c(=O)c(N)nc23)cc(-c2ccc(C(F)(F)F)cc2)n1 (centres unmarked) [Example 109] | 241 |
| CC(Nc1nc(Oc2cccc3[nH]c(=O)c(N)nc23)cc(-c2ccc(C(F)(F)F)cc2)n1)c1ccccn1 (centres unmarked) [Example 113] | 289 |

Now from value to molecule:

| melting point [°C] | Structure (SMILES) |
| --- | --- |
| 243 | COC[C@H](C)Nc1nc(Oc2cccc3[nH]c(=O)c(N)nc23)cc(-c2ccc(C(F)(F)F)cc2)n1 [Example 114] |
| > 300 | CS(=O)(=O)Nc1cccc(CNc2nc(Oc3cccc4[nH]c(=O)c(N)nc34)cc(-c3ccc(C(F)(F)F)cc3)n2)c1 [Example 116, N-{3-[({4-[(3-amino-2-oxo-1,2-dihydroquinoxalin-5-yl)oxy]-6-[4-(trifluoromethyl)phenyl]pyrimidin-2-yl}amino)methyl]phenyl}methanesulfonamide] |
| > 300 | CS(=O)(=O)N1CCN(c2nc(Oc3cccc4[nH]c(=O)c(N)nc34)cc(-c3ccc(C(F)(F)F)cc3)n2)CC1 [Example 117, 3-amino-5-({2-[4-(methylsulfonyl)piperazin-1-yl]-6-[4-(trifluoromethyl)phenyl]pyrimidin-4-yl}oxy)quinoxalin-2(1H)-one] |
| 228 | CC(C)CN1CCCC[C@H]1CNc1nc(Oc2cccc3[nH]c(=O)c(N)nc23)cc(-c2ccc(C(F)(F)F)cc2)n1 [Example 120, (S)-3-Amino-5-(2-((1-isobutylpiperidin-2-yl)methylamino)-6-(4-(trifluoromethyl)phenyl)pyrimidin-4-yloxy)quinoxalin-2(1H)-one] |
| 229 | CC(C)CN1CCCC[C@@H]1CNc1nc(Oc2cccc3[nH]c(=O)c(N)nc23)cc(-c2ccc(C(F)(F)F)cc2)n1 [Example 121, (R)-3-Amino-5-(2-((1-isobutylpiperidin-2-yl)methylamino)-6-(4-(trifluoromethyl)phenyl)pyrimidin-4-yloxy)quinoxalin-2(1H)-one] |
